# Measurements published in patent publication US8841413B2, “Antidiabetic compounds” (Cadila Healthcare Limited, priority 2006, dated 2014).
# Experiments:
# db/db mice = assay: In vivo glucose reduction in db/db mice; details: oral (p.o) administration, FIG. 10
# Protocol: Acute single dose 120-min time-course experiments were carried out in male C57BL/6J or db/db mice, age 8-12 weeks, bred in-house. Animals were housed in groups of 6 animals per cage, for a week, in order to habituate them to vivarium conditions (25±4° C., 60-65% relative humidity, 12:12 h light:dark cycle, with lights on at 7.30 am). All the animal experiments were carried out according to the internationally valid guidelines following approval by the ‘Zydus Research Center animal ethical committee’. […] Two days prior to the study, the animals were randomised and divided into 5 groups (n=6), based upon their fed glucose levels. On the day of experiment, food was withdrawn from all the cages, water was given ad-libitum and were kept for overnight fasting. Vehicle (normal saline)/test/standard compounds were administered intraperitoneally (i.p.) or orally, on a body weight basis. […] The glucose estimation was carried out with DPEC-GOD/POD method (Ranbaxy Fine Chemicals Limited, Diagnostic division, India), using Spectramax-190, in 96-microwell plate reader (Molecular devices Corporation, Sunnyvale, Calif.). […] The AUC and BCAUC obtained from graphs were analyzed for one way ANOVA, followed by Dunnett's post test, using Graph Pad prism software. […]
# C57BL/6J mice = assay: Acute single dose 120-min time-course experiment, in vivo glucose reduction in C57BL/6J mice; set-up: unit not given here; details: male C57BL/6J mice, Mean ± SEM
# Protocol: All the animal experiments were carried out according to the internationally valid guidelines following approval by the ‘Zydus Research Center animal ethical committee’. […] Two days prior to the study, the animals were randomised and divided into 5 groups (n=6), based upon their fed glucose levels. On the day of experiment, food was withdrawn from all the cages, water was given ad-libitum and were kept for overnight fasting. Vehicle (normal saline)/test/standard compounds were administered intraperitoneally (i.p.) or orally, on a body weight basis. […] Blood samples were centrifuged and the separated serum was immediately subjected for the glucose estimation. Serum for insulin estimation was stored at −70° C. until used for the insulin estimation. The glucose estimation was carried out with DPEC-GOD/POD method (Ranbaxy Fine Chemicals Limited, Diagnostic division, India), using Spectramax-190, in 96-microwell plate reader (Molecular devices Corporation, Sunnyvale, Calif.). […] The AUC and BCAUC obtained from graphs were analyzed for one way ANOVA, followed by Dunnett's post test, using Graph Pad prism software. Furthermore, the insulin estimation was carried out using rat/mouse insulin ELISA kit (Linco research, Mo. USA).
smiles,measurement,setting,value
"CCc1cc(OC)ccc1-c1ccc(CC(NC(=O)[C@H](CC(=O)O)NC(=O)[C@H](CO)NC(=O)[C@@H](NC(=O)C(C)(Cc2ccccc2F)NC(=O)[C@@H](NC(=O)CNC(=O)[C@H](CCC(N)=O)NC(=O)C(C)(C)NC(=O)[C@@H](N)Cc2c[nH]cn2)[C@@H](C)O)[C@@H](C)O)C(=O)NC(Cc2ccc(-c3ccccc3C(F)(F)F)cc2)C(N)=O)cc1 (single isomer, unassigned) [Seq. ID. No. 32, H-Aib-QGT-(α-Me-2F-Phe)-TSD-Bip(OMe)-Bip(2CF3)]",in vivo glucose reduction (in words),db/db mice,glucose reduction
same,blood glucose level,"C57BL/6J mice; 10 nM/kg, i.p, 0 min",182 ± 2.3
same,blood glucose level,"C57BL/6J mice; 10 nM/kg, i.p, 30 min",110 ± 2.3
same,blood glucose level,"C57BL/6J mice; 10 nM/kg, i.p, 60 min",112 ± 3.0
same,blood glucose level,"C57BL/6J mice; 10 nM/kg, i.p, 120 min",112 ± 1.9
same,blood glucose level,"C57BL/6J mice; 2 μM/kg, oral, 0 min",181 ± 2.5
same,blood glucose level,"C57BL/6J mice; 2 μM/kg, oral, 30 min",117 ± 3.3
same,blood glucose level,"C57BL/6J mice; 2 μM/kg, oral, 60 min",112 ± 4.0
same,blood glucose level,"C57BL/6J mice; 2 μM/kg, oral, 120 min",108 ± 2.9
